Source: patent US20260284082A1, “TARGETING THE PANX1-P2Y2R-TRPV4 PATHWAY TO TREAT LUNG ISCHEMIA-REPERFUSION INJURY” (UNIVERSITY OF VIRGINIA PATENT FOUNDATION, priority 2023, published 2026)

Assays:
mouse model of lung IRI = experiment: Murine lung IR model (left-lung hilar ligation), pre-treatment with P2Y2R inhibitor; assay type: in vivo, mice; conditions: AR-C 5 mg/kg via jugular vein 1 hr prior to hilar ligation; 1 h ischemia + 2 h reperfusion
Method: Murine lung IR model. A left-lung hilar-ligation model of IRI in mice involving 1 hour of ligation (ischemia) followed by 2 hours of reperfusion.^9,20 Partial pressure of oxygen, lung compliance, lung edema, neutrophil infiltration, and cytokine levels in bronchoalveolar lavage fluid were assessed. Exposure of small pulmonary arteries and pulmonary microvascular endothelial cells to acute hypoxia-reoxygenation were used as ex vivo and in vitro surrogate models of IR, respectively.
Murine lung IR model: A well-established left lung IRI model involving temporary in vivo ligation of the left hilum (pulmonary artery, vein, and airway) was used.^6 Briefly, mice were anesthetized with inhaled isoflurane, intubated, ventilated with room air at 150 strokes/min with a tidal volume of […] (Harvard Apparatus Co, South Natick, MA), and heparinized (20 U/kg: Hospira Inc, Lake Forest, IL). […] Animals were again extubated, recovered in their cage, and monitored during the 2-hour reperfusion period. […]
Partial pressure of arterial oxygen (PaO2): After reperfusion, animals were anesthetized, intubated, and ventilated with 100% oxygen. […] Left lung-specific PaO2 was immediately measured using an i-STAT handheld blood analyzer and CG4+ cartridge (Abbott Point of Care, Princeton, NJ).
Lung wet-to-dry weight ratio: Lung wet-to-dry weight ratio was measured as an indicator of pulmonary edema. […]

[1] = rat, in vivo; cited from earlier work
TRPV4 = conditions: cited from earlier work

Row | SMILES | partial pressure of oxygen (PaO2) after IR (lung function) (mouse model of lung IRI) | pulmonary edema (lung wet-to-dry weight ratio) after IR (mouse model of lung IRI) | plasma half-life (t1/2) [1] | reversibility of TRPV4 inhibition (TRPV4)
1 | Cc1ccc2c(c1)C=Cc1cc(C)ccc1C2c1cn(Cc2ccc(C(=O)Nc3nn[nH]n3)o2)c(=O)[nH]c1=S [ARC, AR-C 118925XX] | improved | not in mice pre-treated with P2Y2R inhibitor AR-C |  | 
2 | O=C(NC1(c2ccccc2)CC1)c1c(CN2CCC(N3CCCCC3)CC2)c(-c2cccc(C(F)(F)F)c2)nc2cc(Br)ccc12 [GSK219, GSK2193874] |  |  | 10 h | reversible
